This passage reports Ki results from US6414020B2, “Amidino protease inhibitors” (3- Dimensional Pharmaceuticals, Inc., priority 1995, dated 2002).

Common to all, as to assay type: biochemical
For test [1], the target named is T1, human α-thrombin (Homo sapiens, UniProt P00734).
T1 construct: Purified human a-thrombin was diluted into assay buffer; purchased Enzyme Research Laboratories (South Bend, Indiana)
Nature of the test: In vitro inhibition of purified thrombin, Ki determination (p-nitroanilide substrate hydrolysis). The following applies: Enzyme: Thrombin; substrate Suc-Ala-Ala-Pro-Arg-pNA 20 μM, 37° C., pH 7.5. An excerpt:
(§1) All buffer salts were obtained from Sigma Chemical Company (St. Louis, Mo.), and were of the highest purity available. The enzyme substrates, N-benzoyl-Phe-Val-Arg-p-nitroanilide (SigmaB7632),N-benzoyl-Ile-Glu-Gly-Arg-p-nitroanilide (Sigma B2291), N-p-tosyl-Gly-Pro-Lys-p-nitroanilide (Sigma T6140), and N-succinyl-Ala-Ala-Pro-Phe-p-nitroanilide (Sigma S7388) were all obtained from Sigma.
(§2) Human α-thrombin and human factor Xa were obtained from Enzyme Research Laboratories (South Bend, Indiana). Bovine trypsin was obtained from Sigma.
All assays are based on the ability of the test compound to inhibit the enzyme catalyzed hydrolysis of a peptide p-nitroanilide substrate. In a typical Ki determination, substrate is prepared in DMSO, and diluted into an assay buffer consisting of 50 mM HEPES, 200 mM NaCl, pH 7.5. The final concentration for each of the substrates is listed below. In general, substrate concentrations are lower than the experimentally determined value for Km. Test compounds are prepared as a 0.16 mg/mL solution in DMSO. Dilutions are prepared in DMSO yielding 8 final concentrations encompassing a 200-fold concentration range. Enzyme solutions are prepared at the concentrations listed below in assay buffer.
(§3) In a typical Ki determination, into each well of a 96 well plate is pipetted 280 uL of substrate solution, 10 μL of inhibitor solution, and the plate allowed to thermally equilibrate at 37° C. in a Molecular Devices plate reader for >10 minutes. Reactions were initiated by the addition of a 20 μL aliquot of enzyme, and the absorbance increase at 405 nm is recorded for 15 minutes. Data corresponding to less than 10% of the total substrate hydrolysis were used in the calculations. The ratio of the velocity (rate of the change in absorbance as a function of time) for a sample containing no inhibitor is divided by the velocity of a sample containing inhibitor, and is plotted as a finction of inhibitor concentration. The data are fit to a linear regression, and the value of the slope of the line calculated. The inverse of the slope is the experimentally determined Ki value.
Thrombin activity was assessed as the ability to hydrolyze the substrate Suc-Ala-Ala-Pro-Arg-pNA. Substrate solutions were prepared at a concentration of 20 μM (20 uM<<Km=180 μM) in assay buffer. Final DMSO concentration was 0.3%. Purified human a-thrombin was diluted into assay buffer to a concentration of […]. Final reagent concentrations were: [thrombin] ═0.5 nM, [Suc-Ala-Ala-Pro-Arg-pNA]=20 μM.

Test [2] deals with T2, bovine trypsin (Bos taurus, UniProt P00760).
T2 construct: Purified bovine trypsin was diluted into assay buffer; purchased Sigma
T2 sequence (P00760 24-246): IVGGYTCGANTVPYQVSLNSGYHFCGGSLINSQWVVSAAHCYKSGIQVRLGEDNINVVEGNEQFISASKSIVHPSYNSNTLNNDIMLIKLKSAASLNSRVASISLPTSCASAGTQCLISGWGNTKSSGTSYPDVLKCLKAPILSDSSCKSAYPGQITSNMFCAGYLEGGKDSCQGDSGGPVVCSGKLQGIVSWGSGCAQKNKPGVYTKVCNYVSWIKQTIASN
As to the kind of experiment: In vitro inhibition of purified trypsin, Ki determination (p-nitroanilide substrate hydrolysis). The following applies: Enzyme: Trypsin; substrate Bz-Phe-Val-Arg-pNA 14 μM, 37° C., pH 7.5.
From the text: as §1, §2
(§4) All assays are based on the ability of the test compound to inhibit the enzyme catalyzed hydrolysis of a peptide p-nitroanilide substrate. […] In general, substrate concentrations are lower than the experimentally determined value for Km. […]
as §3, with “Data corresponding to less than 10% of the total substrate hydrolysis were used in the calculations.” left out, “The data are fit to a linear regression, and the value of the slope of the line calculated. The inverse of the slope is the experimentally determined Ki value.” left out

In test [3] the target is T3, bovine α-chymotrypsin (Bos taurus, UniProt P00766).
T3 construct: Purified bovine x-chymotrypsin was diluted into assay buffer
Nature of the test: In vitro inhibition of purified chymotrypsin, Ki determination (p-nitroanilide substrate hydrolysis). The following applies: Enzyme: Chymotrypsin; substrate Suc-Ala-Ala-Pro-Phe-pNA 14 μM, 37° C., pH 7.5.
From the text: as §1
All assays are based on the ability of the test compound to inhibit the enzyme catalyzed hydrolysis of a peptide p-nitroanilide substrate. In a typical Ki determination, substrate is prepared in DMSO, and diluted into an assay buffer consisting of 50 mM HEPES, 200 mM NaCl, pH 7.5. […] In general, substrate concentrations are lower than the experimentally determined value for Km. […]
as §3, with “Data corresponding to less than 10% of the total substrate hydrolysis were used in the calculations.” left out, “The data are fit to a linear regression, and the value of the slope of the line calculated. The inverse of the slope is the experimentally determined Ki value.” left out

Test [4] has as its target T4, human factor Xa (Homo sapiens, UniProt P00742).
T4 construct: purchased Enzyme Research Laboratories (South Bend, Indiana)
Nature of the test: In vitro inhibition of purified factor Xa, Ki determination (p-nitroanilide substrate hydrolysis). The following applies: Enzyme: Factor Xa; substrate Bz-Ile-Glu-Gly-Arg-pNA 51 μM, 37° C., pH 7.5.
From the text: as §1, §2, §4
as §3, with “Data corresponding to less than 10% of the total substrate hydrolysis were used in the calculations.” left out, “The data are fit to a linear regression, and the value of the slope of the line calculated. The inverse of the slope is the experimentally determined Ki value.” left out

Where a name gives a salt, the structure may show the parent alone.

T4 sequence (P00742 235-488 limits assumed): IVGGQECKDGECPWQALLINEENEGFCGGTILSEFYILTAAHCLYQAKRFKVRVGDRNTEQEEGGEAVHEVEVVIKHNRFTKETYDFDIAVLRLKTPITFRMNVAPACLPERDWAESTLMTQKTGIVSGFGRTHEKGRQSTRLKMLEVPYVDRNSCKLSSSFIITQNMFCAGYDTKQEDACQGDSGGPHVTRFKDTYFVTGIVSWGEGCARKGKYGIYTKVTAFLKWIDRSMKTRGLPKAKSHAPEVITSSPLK
T4 sequence (P00742 41-179 limits assumed): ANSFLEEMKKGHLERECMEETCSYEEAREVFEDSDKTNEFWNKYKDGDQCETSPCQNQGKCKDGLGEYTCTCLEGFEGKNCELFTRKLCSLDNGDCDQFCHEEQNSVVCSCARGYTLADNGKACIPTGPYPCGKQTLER

By Ki is commonly meant a measure of affinity in units of concentration, obtained from inhibition or displacement. `Cc1cc(OCCCC(=N)N)cc(OS(=O)(=O)c2ccccc2Cl)c1` [Example 14, 2-Chlorobenzenesulfonic acid 3-[3-amidinopropoxy]-5-methylphenyl ester hydrochloride]: the Ki in test [1] came to 570 nM. In other words, the sub-micromolar range.

Take `Cc1cc(OCc2cccc(C(=N)NO)c2)cc(OS(=O)(=O)c2ccccc2Cl)c1` [Example 7, 2-Chlorobenzenesutronic acid 3-[[3-(N-hydroxy)amidinophenyl]methoxy-5-methylphenyl ester hydrochloride]: the Ki in test [2] was found to be 5230 nM.

`CC(=N)N1CCC(COc2cc(C)cc(OS(=O)(=O)c3cccc(Cl)c3Cl)c2)CC1` [Example 8, 2,3-Dichlorobenzenesulfonic acid 3-[[(1-acetimidoyl)piperidin-4-yl]methoxy]-5-methylphenyl ester hydrochloride] yielded a Ki in test [1] of 1720 nM.

As to `CC(=N)N1CCC(COc2cc(C)cc(OS(=O)(=O)c3ccccc3Cl)c2)CC1` [Example 1, 2-Chlorobenzenesulfonic acid 3-[(1-acetimidoylpiperidin-4-yl)methoxy]-5-methylphenyl ester hydrochloride], the inhibition constant Ki in test [1] came out at 1650 nM.

On to `CC(=N)N1CCC(COc2cc(C)cc(OS(=O)(=O)c3cccc(Cl)c3)c2)CC1` [Example 5, 3-Chlorobenzenesulfonic acid 3-[[(1-acetimidoyl)piperidin-4-yl]methoxyl]-5-methylphenyl ester hydrochloride], for which, in test [1], the affinity corresponds to a Ki of 4860 nM.

Consider `Cc1cc(OCCCCCC(=N)N)cc(OS(=O)(=O)c2ccccc2Cl)c1` [Example 18, 2-Chlorobenzenesulfonic acid 3-[5-amidinopentyloxy]-5-methylphlenyl ester acetic acid salt], for which affinity in test [3] was put at a Ki of 6290 nM. This lies in the single-digit micromolar range.

Turning to `Cc1cc(OCc2cccc(C(=N)N)c2)cc(OS(=O)(=O)c2ccccc2Cl)c1` [Example 6, 2-Chlorobenzenesulfonic acid 3-[(3amidinophenyl)methoxy]-5-methylphenyl ester hydrochloride], the Ki in test [4] turned out to be 2720 nM.
